Data taken from patent publication US20180289702A1, “LPA LEVEL REDUCTION FOR TREATING CENTRAL NERVOUS SYSTEM DISORDERS” (priority 2015, published 2018).

Tests used:
PRG1−/− mice [1] = test: Morris water maze; format: in vivo; conditions: untreated and PF8380-treated PRG1−/− mice, during training days
Protocol: For MWM the escape latency, swim speed, path length, and trajectory of swimming were recorded for each mouse. First, mice were trained for 5 days in “visible platform” task, than for 6 days in “hidden platform” task (spatial training), followed by a “probe trial”, which was repeated for 4 times. Mice received daily 4 trials for a maximum of 90 s with an intertrial interval of 5 min. The swim velocity (mean and max) and the immobility time (time spend not searching) were measured.

wild type (WT) animals = test: mEPSC recordings with PF8380, wild type; format: cell-based, mice
autotaxin = autotaxin (Homo sapiens, UniProt Q13822); conditions: Gierse et al., 2010; cited from earlier work
PRG-1−/− neurons = test: spontaneous postsynaptic currents (sPSC) with PF8380; format: cell-based, mice; conditions: 1 μm
PRG1−/− mice [2] = test: simultaneous in-vivo recordings of MEC and hippocampal CA1 in freely moving mice
Protocol: Electrophysiological measurements in freely moving animals were performed as described (O'Neill PK et al. 2013). Briefly, animals were kept during surgical procedures under isoflurane anesthesia and electrodes (WE3PT10.5F3, MicroProbes, Gaithersburg, Md., USA) were chronically implanted in the medial entorhinal cortex (MEC; 3.1 mm, lateral to the midline, 0.2 mm anterior to the transverse sinus at an angle of 6° in the anterior-to-posterior direction in the sagittal plane) and in the hippocampal CA1-region (1.5 mm lateral to the midline, 1.5 mm anterior-to-posterior and 1.2 mm dorsal-to-ventral at an angle of 0°). The electrodes were connected to an electrode interface board (EIB-16; Neuralynx, USA) and were secured to the skull using jewelers screws and dental cement. Neural data was acquired using a 16-channel head stage and a Digital Lynx data acquisition system (Neuralynx, USA). The animal's position was monitored using two light-emitting diodes mounted on the head stage. To extract local field potentials, the neural signals were bandpass filtered between 1 and 1000 Hz and digitized at 2 kHz. Separate recordings, each lasting 10 minutes, were made while animals moved freely in their home cage in an open field (0.5 m×0.5 m×0.5 m) and in a plus-maze with a length of 0.4 m per arm. Recordings were repeated for two days. Analysis of neural and behavioral data was performed using custom-written MATLAB scripts (MathWorks). Recording location was verified by current application at the end of the experiment after which animals were perfused, and the brains were cut on a vibratome and Nissl stained using cresyl violet.
Coherence of neuronal activity between the MEC and in the CA1 was computed using the multitaper method (MATLAB routines provided by K. Harris, University College London, London, UK, and G. Buzsáki, New York University, New York, N.Y., USA). […] Power was calculated by taking the absolute value of the wavelet transform and averaged across time to obtain the power spectrum. […]

[3] = tested on: MCAO mouse model of stroke; test: medial cerebral artery occlusion (MCAO) mouse model of stroke; format: in vivo, mice; conditions: 30 mg/kg i.p. 3 hours prior to MCAO
Protocol: For stroke experiments, mice were anesthetized and occlusion of the medial cerebral artery (MCAO) was performed for 30 min (assessment after 3 days) or for 1 h (assessment after 1day) by introduction of an intraluminal filament as reported (Ploen et al., 2014). […] After 1 h or after 30 min of MCAO, respectively, mice recovered and were perfused 24 hours (1 h MCAO) or 72 hours (30 min MCAO) later. Brains were extracted, snap frozen and cryosectioned using a cryotome. Mounted brain slices were Nissl-Stained which allowed to measure infarct area and to calculate total infarct volume per animal. All measurements were performed in a blinded fashion. Data was assessed for normality and statistical analysis was performed using an one-tailed t-test.

O=C(CCN1CCN(C(=O)OCc2cc(Cl)cc(Cl)c2)CC1)c1ccc2[nH]c(=O)oc2c1 [PF8380, 4-[3-(2,3-Dihydro-2-oxo-6-benzoxazolyl)-3-oxopropyl]-1-piperazinecarboxylic acid (3,5-dichlorophenyl)methyl ester]
escape latency in the Morris-Water-Maze (PRG1−/− mice [1]): did not change | mEPSC amplitudes (wild type (WT) animals): did not affect | mEPSC frequency (wild type (WT) animals): did not affect | potency as inhibitor of the LPA-synthetizing enzyme autotaxin (autotaxin): nanomolar potency | sPSC amplitude (PRG-1−/− neurons): not affecting | spontaneous postsynaptic currents (sPSC) (PRG-1−/− neurons): significantly reduced | gamma coherence between MEC and CA1 (PRG1−/− mice [2]; PF8380 treated PRG1−/− mice): reduced to WT levels | peak frequency of theta coherence between MEC and CA1 (PRG1−/− mice [2]; PF8380 treated PRG1−/− mice compared with WT mice): lower | average movement speed during exploratory behavior in the open field (PRG1−/− mice [2]; wild type, untreated and PF8380-treated PRG-1−/− mice): no difference | infarct size ([3]; after 1 day (1 h MCAO)): significantly reduced | infarct size ([3]; after 3 days (30 min MCAO)): significantly reduced
